# According to patent US20200190062A1, “HETEROCYCLIC COMPOUND AND PHARMACEUTICAL COMPOSITION COMPRISING SAME” (BEYONDBIO INC., priority 2015, published 2020):
# Counter-ions that a name gives are not always drawn.
# Experiments:
# Assay in all cases: Inhibition of cancer cell proliferation (MTT)
# Type in all cases: cell-based, human
# HCT116 = tested on: HCT116
# Protocol: (§1) A test was conducted to confirm whether the compounds obtained in the above Examples can inhibit proliferation of human colon carcinoma cell line HCT116, glioblastoma cell lines U-87MG and T98G, neuroblastoma cell lines SH-SYSY and SK-N-SH, and lung cancer cell lines A549 and NCI-H23.
# (§2) HCT116, U-87MG, SH-SYSY, SK-N-SH and A549 cells were culured in DMEM medium containing 10% FBS. T98G cells were cultured in MEM medium containing 10% FBS and NCI-H23 cells were cultured in […] medium containing 10% FBS. In order to analyze an inhibition of proliferation, HCT116 cells were dispensed in 2000 cells/well into 96 well plate, and SH-SYSY, SK-N-SH, U-87MG, T98G, A549, and NCI-H23 cells were dispensed in 3000 cells/well into 96 well plate. And then, the cells were cultured at 5% CO2 and 37° C. for 16 hrs to allow the cells to attach to the wells. The compounds of the above Examples were added to each well at a concentration of 0.004, 0.013, 0.04, 0.12, 0.37, 1.1, 3.3, and 10 uM, and the culture volume was adjusted to 100 ul. A control group was treated with dimethylsulfoxide (DMSO) at the same concentration, 0.08%, as used to treat the test compounds. Afterwards, cells were cultured at 5% CO2 and 37° C. for 72 hrs. And then, 10 ul of the solution of MTT (3-(4,5-dimethylthiazol-2-yl)-2,5-diphenyltetrazolium bromide) dissolved in PBS at 5 mg/ml was added to each well to identify viable cells and the cells were cultured for further 2 hrs. The culture solution was removed, 100 ul of DMSO was added to dissolve the formed formazan and then an absorbance was measured at 535 nm. Based on the absorbance of the control cells not treated with the compounds, the amounts of the viable cells according to the concentration of the compounds were calculated. GI50 (growth inhibition 50) value which is the concentration of the compound to inhibit cancer cell proliferation by 50% was calculated using Graphpad Prism 5.0 program.
# NCI-H23 = tested on: NCI-H23
# Protocol: as §1, §2
# U-87MG = tested on: U-87MG
# Protocol: as §1, §2
# T98G = tested on: T98G
# Protocol: as §1, §2
# A549 = tested on: A549
# Protocol: as §1, §2
Structure (SMILES),GI50 (HCT116; 72 hrs),GI50 (NCI-H23; 72 hrs),GI50 (U-87MG; 72 hrs),GI50 (T98G; 72 hrs),GI50 (A549; 72 hrs),"GI50 (HCT116; Homo sapiens, HCT-116, 72 h)","GI50 (NCI-H23; Homo sapiens, NCI-H23, 72 h)","GI50 (U-87MG; Homo sapiens, U-87 MG, 72 h)","GI50 (T98G; Homo sapiens, T98G, 72 h)","GI50 (A549; Homo sapiens, A549, 72 h)"
"CCN1CCC(c2nc(N)nc(-c3nc(-c4ccnc(N)c4F)ccc3O)c2C)CC1 [Example 94, 2′-amino-6-(2-amino-6-(1-ethylpiperidin-4-yl)-5-methylpyrimidin-4-yl)-3′-fluoro-[2,4′-bipyridin]-5-ol 4hydrochloride]",150 nM,520 nM,320 nM,480 nM,230 nM,,,,,
"Nc1nc(-c2nc(-c3ccnc(N)c3F)ccc2O)cc(C2CCNCC2)n1 [Example 83, 2′-amino-6-(2-amino-6-(piperidin-4-yl)pyrimidin-4-yl)-3′-fluoro-[2,4′-bipyridin]-5-ol 4hydrochloride]",30 nM,1180 nM,90 nM,150 nM,120 nM,,,,,
"Cc1c(-c2nc(-c3ccnc(N)c3F)ccc2O)nc(N)nc1C1CCN(C)CC1 [Example 42, 2′-amino-6-(2-amino-5-methyl-6-(1-methylpiperidin-4-yl)pyrimidin-4-yl)-3′-fluoro-[2,4′-bipyridin]-5-ol]",180 nM,890 nM,270 nM,400 nM,380 nM,,,,,
"CCc1cnc(N)nc1-c1nc(-c2ccnc(N)c2F)ccc1O [Example 102, 2′-amino-6-(2-amino-5-ethylpyrimidin-4-yl)-3′-fluoro-[2,4′-bipyridin]-5-ol 3hydrochloride]",10 nM,30 nM,30 nM,20 nM,40 nM,,,,,
"CCCN1CCC(c2cc(-c3nc(-c4ccnc(N)c4F)ccc3O)nc(N)n2)CC1 [Example 87, 2′-amino-6-(2-amino-6-(1-propylpiperidin-4-yl)pyrimidin-4-yl)-3′-fluoro-[2,4′-bipyridin]-5-ol 4hydrochloride]",3 nM,40 nM,10 nM,20 nM,10 nM,,,,,
"CN1CCC(c2cc(-c3nc(-c4ccnc(N)c4F)ccc3O)nc(N)n2)CC1 [Example 77, 2′-amino-6-(2-amino-(6-(1-methylpiperidin-4-yl)pyrimidin-4-yl)-3′-fluoro-[2,4′-bipyridin]-5-ol 4hydrochloride]",3 nM,30 nM,10 nM,30 nM,10 nM,,,,,
"Cc1c(-c2nc(-c3ccnc(N)c3F)ccc2O)nc(N)nc1C1CCN(C(C)C)CC1 [Example 96, 2′-amino-6-(2-amino-6-(1-isopropylpiperidin-4-yl)-5-methylpyrimidin-4-yl)-3′-fluoro-[2,4′-bipyridin]-5-ol 4hydrochloride]",60 nM,210 nM,80 nM,190 nM,130 nM,,,,,
"Cc1c(-c2nc(-c3ccnc(N)c3F)ccc2O)nc(N)nc1C1CCN(C(C)C)CC1 [Example 45, 2′-amino-6-(2-amino-6-(1-isopropylpiperidin-4-yl)-5-methylpyrimidin-4-yl)-3′-fluoro-[2,4′-bipyridin]-5-ol]",,,,,,90 nM,400 nM,100 nM,160 nM,150 nM
"CCCc1cnc(N)nc1-c1nc(-c2ccnc(N)c2F)ccc1O [Example 103, 2′-amino-6-(2-amino-5-propylpyrimidin-4-yl)-3′-fluoro-[2,4′-bipyridin]-5-ol 3hydrochloride]",10 nM,20 nM,10 nM,10 nM,10 nM,,,,,
"CC(C)N1CCCC(c2cc(-c3nc(-c4ccnc(N)c4F)ccc3O)nc(N)n2)C1 (stereo not shown) [Example 92, 2′-amino-6-(2-amino-6-(1-isopropylpiperidin-3-yl)pyrimidin-4-yl)-3′-fluoro[2,4′-bipyridin]-5-ol 4hydrochloride]",20 nM,50 nM,30 nM,90 nM,30 nM,,,,,
"CCN1CCCC(c2cc(-c3nc(-c4ccnc(N)c4F)ccc3O)nc(N)n2)C1 (stereo not shown) [Example 39, 2′-amino-6-(2-amino-6-(1-ethylpiperidin-3-yl)pyrimidin-4-yl)-3′-fluoro-[2,4′-bipyridin]-5-ol]",170 nM,1790 nM,390 nM,690 nM,400 nM,,,,,
"Cc1nc(N)nc(-c2nc(-c3ccnc(N)c3F)ccc2O)c1C [Example 60, 2′-amino-6-(2-amino-5,6-dimethylpyrimidin-4-yl)-3′-fluoro-[2,4′-bipyridin]-5-ol]",,,,,,50 nM,220 nM,220 nM,260 nM,120 nM
"CCCN1CCC(c2nc(N)nc(-c3nc(-c4ccnc(N)c4F)ccc3O)c2C)CC1 [Example 44, 2′-amino-6-(2-amino-5-methyl-6-(1-propylpiperidin-4-yl)pyrimidin-4-yl)-3′-fluoro-[2,4′-bipyridin]-5-ol]",,330 nM,,,,60 nM,,90 nM,130 nM,140 nM
"Nc1nc(-c2nc(-c3ccnc(N)c3F)ccc2O)cc(C2CCNCC2)n1 [Example 84, 2′-amino-6-(2-amino-6-(piperidin-4-yl)pyrimidin-4-yl)-3′-fluoro-[2,4′-bipyridin]-5-ol acetate]",60 nM,2030 nM,180 nM,290 nM,220 nM,,,,,
"Cc1cnc(N)nc1-c1nc(-c2ccnc(N)c2F)ccc1O [Example 100, 2′-amino-6-(2-amino-5-methylpyrimidin-4-yl)-3′-fluoro-[2,4′-bipyridin]-5-ol 3hydrochloride]",30 nM,70 nM,60 nM,50 nM,70 nM,,,,,
"CCN1CCCC(c2cc(-c3nc(-c4ccnc(N)c4F)ccc3O)nc(N)n2)C1 (stereo not shown) [Example 90, 2′-amino-6-(2-amino-6-(1-ethylpiperidin-3-yl)pyrimidin-4-yl)-3′-fluoro-[2,4′-bipyridin]-5-ol 4hydrochloride]",40 nM,390 nM,100 nM,190 nM,110 nM,,,,,
Cc1c(-c2nc(-c3ccnc(N)c3F)ccc2O)nc(N)nc1C1CCCN(C)C1 (stereo not shown) [Example 97],110 nM,290 nM,120 nM,160 nM,160 nM,,,,,
"CCCc1c(-c2nc(-c3ccnc(N)c3F)ccc2O)nc(N)nc1C1CCN(C(C)C)CC1 [Example 50, 2′-amino-6-(2-amino-6-(1-isopropylpiperidin-4-yl)-5-propylpyrimidin-4-yl)-3′-fluoro-[2,4′-bipyridin]-5-ol]",,,,,150 nM,40 nM,160 nM,70 nM,130 nM,
"CCN1CCC(c2cc(-c3nc(-c4ccnc(N)c4F)ccc3O)nc(N)n2)CC1 [Example 86, 2′-amino-6-(2-amino-6-(1-ethylpiperidin-4-yl)pyrimidin-4-yl)-3′-fluoro-[2,4′-bipyridin]-5-ol 4hydrochloride]",10 nM,50 nM,30 nM,190 nM,20 nM,,,,,
"CCc1c(-c2nc(-c3ccnc(N)c3F)ccc2O)nc(N)nc1C1CCN(C(C)C)CC1 [Example 49, 2′-amino-6-(2-amino-5-ethyl-6-(1-isopropylpiperidin-4-yl)pyrimidin-4-yl)-3′-fluoro-[2,4′-bipyridin]-5-ol]",,,,,,20 nM,70 nM,30 nM,50 nM,50 nM
